Source: patent US7291621B2, “Substituted biaryl amides C5a receptor modulators” (Neurogen Corporation, priority 2002, dated 2007)
Like-named read-outs stand apart in the source and are kept apart here.

Target: T1, C5a receptor (Homo sapiens, UniProt P21730)
T1 construct: endogenous in cells; host or cells: U937 cells differentiated with 1 mM dibutyryl cAMP
T1 sequence (P21730 1-350): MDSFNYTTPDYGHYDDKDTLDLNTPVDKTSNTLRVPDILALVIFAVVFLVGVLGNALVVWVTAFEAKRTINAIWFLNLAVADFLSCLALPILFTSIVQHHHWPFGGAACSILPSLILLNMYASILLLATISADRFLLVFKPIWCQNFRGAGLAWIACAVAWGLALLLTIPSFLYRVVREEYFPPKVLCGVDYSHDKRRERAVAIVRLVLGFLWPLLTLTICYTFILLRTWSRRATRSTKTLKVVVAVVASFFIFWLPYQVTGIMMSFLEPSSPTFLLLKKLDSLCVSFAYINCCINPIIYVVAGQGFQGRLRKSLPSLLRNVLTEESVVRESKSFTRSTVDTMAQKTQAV
Test: standard assay of C5a receptor mediated calcium mobilization
Format: cell-based
Conditions: asterisk = tested in C5a receptor mediated calcium mobilization assay, read-out: Ca2+ Mob.
Procedure, shortened: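 U937 cells differentiated 48 hrs with 1 mM dibutyryl cAMP, loaded with Fluo-3 (10 μg/mL) and read by FLIPR fluorescence (ex 480/em 530). For antagonism, cells preincubated 1 h with 1 μM compound before 0.3 nM human recombinant C5a; activity scored as fold decrease in response versus C5a alone.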

| Ki (Table I) [µM] | Ki (Table III) [µM] | SMILES |
| --- | --- | --- |
| < 1 |  | CSc1ccccc1-c1ccccc1C(=O)N(Cc1ccccc1)Cc1ccccc1 [compound 37, N,N-dibenzyl-2′-(methylthio)-1,1′-biphenyl-2-carboxamide] |
| < 1 |  | Cc1cc(CN(Cc2ccccc2)C(=O)c2cc(Cl)ccc2-c2ccccc2)cc(C)c1O [compound 142, N-benzyl-4-chloro-N-(4-hydroxy-3,5-dimethylbenzyl)-1,1′-biphenyl-2-carboxamide] |
| < 1 |  | Cc1ccc(-c2ccccc2)c(C(=O)N(Cc2ccccc2)C2Cc3ccccc3C2)c1 [compound 116, N-benzyl-N-(indan-2-yl)-4-methyl-1,1′-biphenyl-2-carboxamide] |
| < 1 |  | O=C(c1cc(Cl)ccc1-c1ccccc1)N(Cc1ccccc1)Cc1ccc2c(c1)OCC2 [compound 144, N-benzyl-4-chloro-N-(2,3-dihydro-1-benzofuran-6-ylmethyl)-1,1′-biphenyl-2-carboxamide] |
| < 1 |  | Cc1ccc(-c2ccccc2C(=O)N(Cc2ccccc2)Cc2ccc(O)cc2Cl)s1 [compound 149, N-benzyl-N-(2-chloro-4-hydroxybenzyl)-2-(5-methylthien-2-yl)benzamide] |
| < 1 |  | Cc1ccccc1-c1ccccc1C(=O)N(Cc1ccccc1)Cc1ccccc1 [compound 53, N,N-dibenzyl-2′-methyl-1,1′-biphenyl-2-carboxamide] |
| < 1 |  | O=C(c1cc(Cl)ccc1-c1ccccc1)N(Cc1ccc(F)cc1)C1Cc2ccccc2C1 [compound 136, 4-chloro-N-(indan-2-yl)-N-(4-fluorobenzyl)-1,1′-biphenyl-2-carboxamide] |
| < 1 |  | O=C(c1cc(Cl)ccc1-c1ccsc1)N(Cc1ccccc1)C1Cc2ccccc2C1 [compound 119, N-benzyl-5-chloro-N-(indan-2-yl)-2-thien-3-ylbenzamide] |

Continued, compound first:

| SMILES | Ki (Table I) [µM] | Ki (Table III) [µM] |
| --- | --- | --- |
| COc1ccc(-c2ccccc2)c(C(=O)N(Cc2ccccc2C)C2Cc3ccccc3C2)c1 [compound 105, N-(indan-2-yl)-4-methoxy-N-(2-methylbenzyl)-1,1′-biphenyl-2-carboxamide] | < 1 |  |
| Cc1ccc(-c2ccccc2C(=O)N(Cc2ccccc2F)C2Cc3ccccc3C2)cc1 [compound 94, N-(indan-2-yl)-N-(2-fluorobenzyl)-4′-methyl-1,1′-biphenyl-2-carboxamide] | < 1 |  |
| COc1ccccc1CN(C(=O)c1ccccc1-c1ccsc1)C1Cc2ccccc2C1 [compound 81, N-(indan-2-yl)-N-(2-methoxybenzyl)-2-thien-3-ylbenzamide] | < 1 |  |
| O=C(c1c(F)cccc1-c1ccccc1)N(Cc1ccccc1)C1Cc2ccccc2C1 [compound 112, N-benzyl-N-(indan-2-yl)-3-fluoro-1,1′-biphenyl-2-carboxamide] | < 1 |  |
| COc1ccc(-c2ccc(C)s2)c(C(=O)N(Cc2ccccc2)C2Cc3ccccc3C2)c1 [compound 70, N-benzyl-N-(indan-2-yl)-5-methoxy-2-(5-methylthien-2-yl)benzamide] | < 1 |  |
| O=C(c1ccccc1-c1ccsc1)N(Cc1cccc(-c2ccsc2)c1)C1Cc2ccccc2C1 [compound 85, N-(indan-2-yl)-2-thien-3-yl-N-(3-thien-3-ylbenzyl)benzamide] | < 1 |  |
| Cc1ccc(-c2ccccc2C(=O)N(Cc2ccccc2C)C2Cc3ccccc3C2)cc1 [compound 100, N-(indan-2-yl)-4′-methyl-N-(2-methylbenzyl)-1,1′-biphenyl-2-carboxamide] | < 1 |  |
| Cc1cccc(-c2ccccc2)c1C(=O)N(Cc1ccc2c(c1)OCO2)C1Cc2ccccc2C1 [compound 129, N-(1,3-benzodioxol-5-ylmethyl)-N-(indan-2-yl)-3-methyl-1,1′-biphenyl-2-carboxamide] | < 1 |  |
| Cc1ccc(CN(C(=O)c2ccccc2-c2ccccc2F)C2Cc3ccccc3C2)cc1 [compound 90, N-(indan-2-yl)-2′-fluoro-N-(4-methylbenzyl)-1,1′-biphenyl-2-carboxamide] | < 1 |  |
| COc1ccc2ccccc2c1C(=O)N(Cc1ccccc1)Cc1cc(C)c(O)c(C)c1 [compound 217, N-benzyl-N-(4-hydroxy-3,5-dimethylbenzyl)-2-methoxy-1-naphthamide] |  | < 1 |
